Test results from article PMC6273687, “Design, Synthesis and Biological Evaluation of Novel Primaquine-Cinnamic Acid Conjugates of the Amide and Acylsemicarbazide Type” (Molecules, 2016).

Experiments:
[1] = biological target: T1, soybean lipoxygenase (LOX) (Glycine max, UniProt P08170); experiment: LOX inhibition study in vitro; type: biochemical; settings: for IC50: values in parentheses in Table 3; for inhibition at 100 µM: 1 × 10^−4 M
T1 construct: purchased Sigma-Aldrich
T1 sequence (P08170 1-839): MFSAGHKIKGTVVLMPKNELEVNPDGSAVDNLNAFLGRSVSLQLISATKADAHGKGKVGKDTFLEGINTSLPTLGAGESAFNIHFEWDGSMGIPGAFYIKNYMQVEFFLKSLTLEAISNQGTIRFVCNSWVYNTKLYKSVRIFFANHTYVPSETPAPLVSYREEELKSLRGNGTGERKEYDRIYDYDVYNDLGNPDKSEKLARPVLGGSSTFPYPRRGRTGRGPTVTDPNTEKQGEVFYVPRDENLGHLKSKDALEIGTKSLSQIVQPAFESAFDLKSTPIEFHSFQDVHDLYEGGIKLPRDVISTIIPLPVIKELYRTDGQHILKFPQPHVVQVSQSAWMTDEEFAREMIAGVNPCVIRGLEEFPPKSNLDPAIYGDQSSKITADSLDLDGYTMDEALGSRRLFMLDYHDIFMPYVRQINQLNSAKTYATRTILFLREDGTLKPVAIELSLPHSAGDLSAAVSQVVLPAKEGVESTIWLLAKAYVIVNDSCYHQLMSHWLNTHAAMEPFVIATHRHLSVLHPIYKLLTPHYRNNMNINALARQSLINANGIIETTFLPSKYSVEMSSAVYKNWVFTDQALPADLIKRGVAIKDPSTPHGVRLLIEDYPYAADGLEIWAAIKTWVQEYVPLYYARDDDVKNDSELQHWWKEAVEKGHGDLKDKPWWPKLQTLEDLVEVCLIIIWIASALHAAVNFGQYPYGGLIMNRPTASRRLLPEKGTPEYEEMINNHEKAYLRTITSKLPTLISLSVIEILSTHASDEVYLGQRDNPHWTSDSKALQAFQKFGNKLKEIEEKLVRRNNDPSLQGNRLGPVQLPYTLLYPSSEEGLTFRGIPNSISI
Description: LOX inhibitory assay in vitro was accomplished as described previously. The test compounds (stock solutions 10 mM in DMSO) were incubated at room temperature with sodium linoleate (c = 0.1 mM) and 0.2 mL of LOX enzyme solution (1/9 × 10^−4 m/V in saline). The conversion of sodium linoleate to 13-hydroperoxylinoleic acid was measured at 234 nm and compared with the reference inhibitor. Several concentrations were used for the IC50 determination.

[2] = Interaction with the stable radical DPPH (reducing ability)
Description: To a solution of DPPH in absolute ethanol the appropriate volume of the compounds (50 or 100 µM final concentrations) dissolved in DMSO was added. The absorbance was recorded at 517 nm after 20 and 60 min at room temperature. The experiments were repeated at least in triplicate and the standard deviation of absorbance was less than 10% of the mean. NDGA was used under the same experimental conditions as a reference compound.

[3] = tested on: MCF-7 breast carcinoma cell line; experiment: Growth inhibition of tumor cell lines in vitro (MTT / cell counting); type: cell-based, human; settings: Homo sapiens, MCF7, 72 h; MCF-7, 3 days
Description: (§1) The experiments were carried out on a murine lymphocytic leukemia cell line (L1210) and five human tumor cell lines: CEM, HeLa, NCI-H460, SW 620 and MCF-7. The cells were cultured as monolayers and maintained in Dulbecco′s modified Eagle medium (DMEM) supplemented with 10% fetal bovine serum (FBS), 2 mM L-glutamine, 100 U/mL penicillin and 100 μg/mL streptomycin in a humidified atmosphere with 5% CO2 at 37 °C.
(§2) The growth inhibition activity of the compounds was assessed as described previously. The cell lines were inoculated onto a series of standard 96-well microtiter plates on day 0, at 1.5 × 10^4 cells/mL (SW 620, H460) to 2.5 × 10^4 cells/mL (MCF-7, CEM and L1210), depending on the growth of the tumor cell line. Test agents were then added in ten-fold dilutions (10^−8 to 10^−4 M) and the cell cultures were then incubated for 3–4 days with 5% CO2 at 37 °C. Working dilutions of the compounds were freshly prepared on the day of testing.
(§3) After 3 (MCF-7, SW 620, NCI-H460) or 4 days (CEM, L1210), the cell growth rate was evaluated first light microscopically, then by viable cell counting and/or by performing the MTT assay, which detects dehydrogenase activity in live, not dead, cells. The absorbance (A) was measured on a microplate reader at 570 nm. The absorbance is directly proportional to the number of living, metabolically active cells. […] If however, all of the tested concentrations produce PGs exceeding the respective reference level of effect (e.g., PG value of 50), then the highest tested concentration is assigned as the default value, which is preceded by a “>” sign. Minimum two individual experiments were carried out and each test point was performed in quadruplicate.

[4] = tested on: NCI-H460 lung carcinoma cell line; experiment: as above; type: cell-based, human; settings: Homo sapiens, 72 h; NCI-H460, 3 days
Description: as §1, §2, §3

[5] = Inhibition of linoleic acid peroxidation (AAPH-induced); settings: 5 × 10^−5 M
Description: For initiating the lipid peroxidation free radical AAPH was used. Final solution in the UV cuvette consisted of 10 μL linoleate sodium solution (c = 16 mM), 0.93 mL phosphate buffer (c = 0.05 M), pH 7.4, thermostated at 37 °C. 50 μL AAPH solution (c = 40 mM) and 10 μL of the tested compounds were added. The experiment was performed at 37 °C under air. The oxidation of linoleic acid sodium salt was monitored at 234 nm. The assays were repeated at least in triplicate and the standard deviation of absorbance was less than 10% of the mean. Trolox was used under the same experimental conditions as a reference compound.

[6] = tested on: HeLa cervical carcinoma cell line; experiment: Growth inhibition of tumor cell lines in vitro (MTT / cell counting); type: cell-based; settings: Homo sapiens
Description: as §1, §2, §3

[7] = tested on: SW 620 colon carcinoma cell line; experiment: as above; type: cell-based; settings: Homo sapiens, 72 h; SW 620, 3 days
Description: as §1, §2, §3

[8] = tested on: L1210 murine lymphocytic leukemia cell line; experiment: as above; type: cell-based; settings: Mus musculus, 96 h; L1210, 4 days
Description: as §1, §2, §3

[9] = tested on: CEM acute lymphoblastic leukemia cell line; experiment: as above; type: cell-based; settings: Homo sapiens, 96 h, 4 days
Description: as §1, §2, §3

| SMILES | IC50 [1] [µM] | DPPH-reducing ability RA (%) ([2]; 1 × 10^−4 M, 20 min) | DPPH-reducing ability RA (%) ([2]; 1 × 10^−4 M, 60 min) | DPPH-reducing ability RA (%) ([2]; 5 × 10^−5 M, 20 min) | DPPH-reducing ability RA (%) ([2]; 5 × 10^−5 M, 60 min) | IC50 [3] [µM] | IC50 [4] [µM] | LP Inhibition (%) [5] [%] | IC50 [6] [µM] | IC50 [7] [µM] | IC50 [8] [µM] | IC50 [9] [µM] | inhibition at 100 µM [1] [%] |
| --- | --- | --- | --- | --- | --- | --- | --- | --- | --- | --- | --- | --- | --- |
| COc1cc(NC(C)CCCNC(=O)NNC(=O)/C=C/c2cc(OC)c(OC)c(OC)c2)c2ncccc2c1 (stereo not shown) [7e, (E)-4-(4-(6-Methoxyquinolin-8-ylamino)pentyl)-1-(3-(3,4,5-trimethoxyphenyl)acryloyl)semicarbazide] | 43 | 46 | 100 | 60 | 100 | 1.4 ± 0.1 | 63 ± 2 | 86 | 70 ± 2 | 48 ± 17 | 57 ± 5 | 54 ± 12 | – |
| COc1cc(NC(C)CCCNC(=O)/C=C/c2ccc(OC)c(OC)c2)c2ncccc2c1 (stereo not shown) [3d, (E)-3-(3,4-Dimethoxyphenyl)-N-(4-(6-methoxyquinolin-8-ylamino)pentyl)acrylamide] | – | 34 | 31 | – | – | 16 ± 0.6 | > 100 | 73 | > 125 | > 100 | 100 ± 34 | 90 ± 45 | 43 |
| COc1cc(NC(C)CCCNC(=O)/C=C/c2ccc(Cl)cc2)c2ncccc2c1 (stereo not shown) [3g, (E)-3-(4-Chlorophenyl)-N-(4-(6-methoxyquinolin-8-ylamino)pentyl)acrylamide] | – | 27 | 46 | – | – | 4.3 ± 1 | > 100 | 46 | 36 ± 16 | > 100 | 63 ± 2 | 20 ± 2 | 17 |
| COc1cc(NC(C)CCCNC(=O)NNC(=O)/C=C/c2ccccc2F)c2ncccc2c1 (stereo not shown) [7h, (E)-1-(3-(2-Fluorophenyl)acryloyl)-4-(4-(6-methoxyquinolin-8-ylamino)pentyl)semicarbazide] | 41 | 52 | 100 | 61 | 100 | 5.9 ± 2 | 12 ± 0.2 | 67 | 46 ± 2 | 12 ± 4 | 40 ± 4 | 15 ± 2 | – |
| COc1cc(NC(C)CCCNC(=O)/C=C/c2cc(OC)c(OC)c(OC)c2)c2ncccc2c1 (stereo not shown) [3e, (E)-N-(4-(6-Methoxyquinolin-8-ylamino)pentyl)-3-(3,4,5-trimethoxyphenyl)acrylamide] | – | 16 | 23 | 4 | 9 | 8.7 ± 0.3 | > 100 | 47 | > 125 | > 100 | 22 ± 2 | 55 ± 16 | 26 |
| COc1cc(NC(C)CCCNC(=O)/C=C/c2ccccc2F)c2ncccc2c1 (stereo not shown) [3h, (E)-3-(2-Fluorophenyl)-N-(4-(6-methoxyquinolin-8-ylamino)pentyl)acrylamide] | – | – | – | – | – | 1.1 ± 0.6 | > 100 | 66 | 2.1 ± 2.1 | 0.3 ± 0.1 | 66 ± 5 | 18 ± 15 | 10 |
